Assay results as given in ChEMBL document CHEMBL4130478, “Improved proteolytic stability and potent activity against Leishmania infantum trypanothione reductase of α/β-peptide foldamers conjugated to cell-penetrating peptides” (Eur J Med Chem, 2017).
Active and inactive are the calls of the source. The rule behind the calls is not given here.

Legend:
Trypanothione reductase [1] = biological target: T1, Trypanothione reductase (Leishmania infantum, UniProt A4HSF7); experiment: Inhibition of oxidoreductase activity of recombinant Leishmania infantum trypanothione reductase pre-incubated for 10 mins before T[S]2 and NADPH addition
T1 sequence (A4HSF7 whole entry): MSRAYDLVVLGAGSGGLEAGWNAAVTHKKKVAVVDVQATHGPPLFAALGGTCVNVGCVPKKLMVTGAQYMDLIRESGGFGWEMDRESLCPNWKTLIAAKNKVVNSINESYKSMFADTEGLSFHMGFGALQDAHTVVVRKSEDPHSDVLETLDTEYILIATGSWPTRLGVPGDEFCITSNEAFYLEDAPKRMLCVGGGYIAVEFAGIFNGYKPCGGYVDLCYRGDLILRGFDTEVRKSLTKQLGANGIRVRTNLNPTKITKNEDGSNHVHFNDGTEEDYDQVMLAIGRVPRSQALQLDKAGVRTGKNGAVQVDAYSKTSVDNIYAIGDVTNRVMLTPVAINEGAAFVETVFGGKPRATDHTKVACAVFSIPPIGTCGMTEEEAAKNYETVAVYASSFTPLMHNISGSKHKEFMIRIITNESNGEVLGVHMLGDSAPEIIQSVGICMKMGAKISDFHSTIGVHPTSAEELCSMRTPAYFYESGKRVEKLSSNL

Leishmania infantum [2] = experiment: Leishmanicidal activity against Leishmania infantum amastigotes at 25 uM after 24 hrs by propidium iodide staining based flow cytometry; assay type: functional, organism-based
Leishmania infantum [3] = experiment: Leishmanicidal activity against Leishmania infantum MCAN/ES/89/IPZ229/1/89 promastigotes at 25 uM after 24 hrs by propidium iodide staining based flow cytometry; assay type: functional, organism-based
Trypanothione reductase [4] = biological target: T1, Trypanothione reductase; experiment: Inhibition of dimerization of HIS/FLAG tagged Leishmania infantum trypanothione reductase incubated for 16 hrs in presence of dimerization buffer by ELISA
Proteinase K = Proteinase K (Engyodontium album, UniProt P06873); experiment: Stability assessed as Tritirachium album proteinase K-mediated compound degradation by measuring half life at 50 uM by HPLC method; assay type: ADME; details: parengyodontium album
Chain of Proteinase K (P06873 whole entry): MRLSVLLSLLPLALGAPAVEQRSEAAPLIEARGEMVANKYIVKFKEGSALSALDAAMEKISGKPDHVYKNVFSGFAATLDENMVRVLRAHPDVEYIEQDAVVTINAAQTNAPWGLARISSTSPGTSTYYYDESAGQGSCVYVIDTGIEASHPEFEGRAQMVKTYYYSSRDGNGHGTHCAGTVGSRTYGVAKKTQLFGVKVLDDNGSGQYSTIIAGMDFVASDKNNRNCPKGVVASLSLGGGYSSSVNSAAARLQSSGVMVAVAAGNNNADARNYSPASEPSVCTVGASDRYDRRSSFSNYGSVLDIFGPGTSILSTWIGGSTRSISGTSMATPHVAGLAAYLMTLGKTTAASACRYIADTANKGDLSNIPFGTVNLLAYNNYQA

| Structure (SMILES) | IC50 (Trypanothione reductase [1]) | Activity (Leishmania infantum [2]) | Activity (Leishmania infantum [3]) | IC50 (Trypanothione reductase [4]) | half-life at 50 µM (Proteinase K) |
| --- | --- | --- | --- | --- | --- |
| CCCC[C@H](NC(=O)[C@H](CO)NC(=O)[C@@H](NC(=O)C[C@H](C)NC(=O)[C@@H](NC(=O)[C@H](CO)NC(=O)[C@H](CCC(N)=O)NC(=O)C[C@@H](NC(=O)[C@@H](NC(=O)[C@H](CCCCN)NC(=O)[C@@H]1CCCN1C(C)=O)[C@@H](C)CC)[C@@H](C)CC)C(C)C)[C@@H](C)CC)C(N)=O | 28.5 µM | inactive | inactive | 47.3 µM |  |
| CCCC[C@@H](CC(N)=O)NC(=O)[C@H](CCCCN)NC(=O)[C@H](CCCC)NC(=O)C[C@H](CO)NC(=O)C[C@H](NC(=O)CNC(=O)[C@@H](NC(=O)C[C@H](CO)NC(=O)[C@H](CCC(N)=O)NC(=O)[C@@H](NC(=O)[C@@H](NC(=O)C[C@H](CCCCN)NC(=O)C[C@@H]1CCCN1C(C)=O)[C@@H](C)CC)[C@@H](C)CC)C(C)C)[C@@H](C)CC | 2.08 µM | inactive | inactive | 18 µM | 2.18 h |
| CC[C@H](C)[C@H](CC(=O)N[C@H](C(=O)N[C@@H](CCC(N)=O)C(=O)N[C@@H](CO)C(=O)N[C@@H](CC(=O)NCC(=O)N[C@H](C(N)=O)[C@@H](C)CC)C(C)C)[C@@H](C)CC)NC(=O)[C@H](CCCCN)NC(=O)[C@@H]1CCCN1C(C)=O | > 75 µM | inactive | inactive | 53 µM |  |
| CCCC[C@H](NC(=O)[C@@H](CO)NC(=O)[C@@H](NC(=O)CNC(=O)[C@@H](NC(=O)[C@@H](CO)NC(=O)[C@H](CCC(N)=O)NC(=O)[C@@H](NC(=O)[C@@H](NC(=O)[C@H](CCCCN)NC(=O)[C@@H]1CCCN1C(C)=O)[C@@H](C)CC)[C@@H](C)CC)C(C)C)[C@@H](C)CC)C(N)=O |  | inactive | inactive |  |  |
| CCCC[C@@H](CC(N)=O)NC(=O)[C@H](CCCCN)NC(=O)[C@H](CCCC)NC(=O)C[C@H](CO)NC(=O)[C@@H](NC(=O)CNC(=O)[C@@H](NC(=O)C[C@H](CO)NC(=O)[C@H](CCC(N)=O)NC(=O)[C@@H](NC(=O)C[C@H](NC(=O)[C@H](CCCCN)NC(=O)C[C@@H]1CCCN1C(C)=O)[C@@H](C)CC)[C@@H](C)CC)C(C)C)[C@@H](C)CC | 3.47 µM | inactive | inactive | 21.7 µM | 8.62 h |
| CCCC[C@H](NC(=O)[C@H](CO)NC(=O)[C@@H](NC(=O)CNC(=O)[C@@H](NC(=O)[C@H](CO)NC(=O)[C@H](CCC(N)=O)NC(=O)[C@@H](NC(=O)[C@@H](NC(=O)[C@H](CCCCN)NC(=O)[C@@H]1CCCN1C(C)=O)[C@@H](C)CC)[C@@H](C)CC)C(C)C)[C@@H](C)CC)C(N)=O | 0.82 µM |  |  | 4.21 µM |  |
| CC[C@H](C)[C@H](NC(=O)CNC(=O)[C@@H](NC(=O)C[C@H](CO)NC(=O)[C@H](CCC(N)=O)NC(=O)[C@@H](NC(=O)C[C@@H](NC(=O)[C@H](CCCCN)NC(=O)[C@@H]1CCCN1C(C)=O)[C@@H](C)CC)[C@@H](C)CC)C(C)C)C(N)=O | > 75 µM | inactive | inactive | 22.3 µM | 3.97 h |
| CCCC[C@H](NC(=O)C[C@H](CCCCN)NC(=O)[C@H](CCCC)NC(=O)[C@H](CO)NC(=O)[C@@H](NC(=O)C[C@H](C)NC(=O)[C@@H](NC(=O)[C@H](CO)NC(=O)[C@H](CCC(N)=O)NC(=O)C[C@@H](NC(=O)[C@@H](NC(=O)[C@H](CCCCN)NC(=O)[C@@H]1CCCN1C(C)=O)[C@@H](C)CC)[C@@H](C)CC)C(C)C)[C@@H](C)CC)C(N)=O | 5.38 µM | inactive | inactive | 13.8 µM |  |
| CCCC[C@H](NC(=O)[C@H](CCCCN)NC(=O)[C@H](CCCC)NC(=O)[C@H](CO)NC(=O)[C@@H](NC(=O)CNC(=O)C[C@H](NC(=O)[C@H](CO)NC(=O)[C@H](CCC(N)=O)NC(=O)[C@@H](NC(=O)C[C@H](NC(=O)[C@H](CCCCN)NC(=O)[C@@H]1CCCN1C(C)=O)[C@@H](C)CC)[C@@H](C)CC)C(C)C)[C@@H](C)CC)C(N)=O | 8.78 µM | inactive | inactive | 13.7 µM |  |
| CC[C@H](C)[C@H](CC(=O)N[C@@H](CCC(N)=O)C(=O)N[C@@H](CO)C(=O)N[C@@H](CC(=O)NCC(=O)N[C@H](C(N)=O)[C@@H](C)CC)C(C)C)NC(=O)[C@@H](NC(=O)[C@H](CCCCN)NC(=O)[C@@H]1CCCN1C(C)=O)[C@@H](C)CC | > 75 µM | inactive | inactive | 41.8 µM |  |
| CCCC[C@H](NC(=O)[C@H](CCCCN)NC(=O)[C@H](CCCC)NC(=O)[C@H](CO)NC(=O)[C@@H](NC(=O)CNC(=O)[C@@H](NC(=O)[C@H](CO)NC(=O)[C@H](CCC(N)=O)NC(=O)[C@@H](NC(=O)[C@@H](NC(=O)[C@H](CCCCN)NC(=O)[C@@H]1CCCN1C(C)=O)[C@@H](C)CC)[C@@H](C)CC)C(C)C)[C@@H](C)CC)C(N)=O | 1.2 µM |  |  | 10.3 µM | 0.383 h |
| CC[C@H](C)[C@H](NC(=O)C[C@H](C)NC(=O)[C@@H](NC(=O)[C@H](CO)NC(=O)[C@H](CCC(N)=O)NC(=O)C[C@@H](NC(=O)[C@@H](NC(=O)[C@H](CCCCN)NC(=O)C[C@@H]1CCCN1C(C)=O)[C@@H](C)CC)[C@@H](C)CC)C(C)C)C(=O)O | 39.8 µM | inactive | inactive | 50.4 µM |  |
| CCCC[C@H](NC(=O)C[C@H](CCCCN)NC(=O)[C@H](CCCC)NC(=O)C[C@H](CO)NC(=O)C[C@@H](NC(=O)CNC(=O)[C@@H](NC(=O)C[C@H](CO)NC(=O)C[C@H](CCC(N)=O)NC(=O)[C@@H](NC(=O)[C@@H](NC(=O)C[C@H](CCCCN)NC(=O)C[C@@H]1CCCN1C(C)=O)[C@@H](C)CC)[C@@H](C)CC)C(C)C)[C@@H](C)CC)C(N)=O | 9.28 µM | inactive | inactive | 15.5 µM | 5.28 h |
| CCCC[C@@H](CC(=O)N[C@@H](CCCCN)C(=O)N[C@@H](CCCC)C(N)=O)NC(=O)[C@H](CO)NC(=O)[C@@H](NC(=O)C[C@H](C)NC(=O)[C@@H](NC(=O)[C@H](CO)NC(=O)[C@H](CCC(N)=O)NC(=O)C[C@H](NC(=O)[C@@H](NC(=O)[C@H](CCCCN)NC(=O)C[C@@H]1CCCN1C(C)=O)[C@@H](C)CC)[C@@H](C)CC)C(C)C)[C@@H](C)CC | 2.69 µM |  |  | 13.9 µM | 0.383 h |
| CCCC[C@@H](CC(=O)N[C@@H](CCCCN)C(=O)N[C@@H](CC(N)=O)C(N)=O)NC(=O)[C@H](CO)NC(=O)[C@@H](NC(=O)CNC(=O)C[C@@H](NC(=O)[C@H](CO)NC(=O)[C@H](CCC(N)=O)NC(=O)C(NC(=O)C[C@@H](NC(=O)[C@H](CCCCN)NC(=O)[C@@H]1CCCN1C(C)=O)[C@@H](C)CC)[C@@H](C)CC)C(C)C)[C@@H](C)CC (single isomer, unassigned) | 18.2 µM | inactive | inactive | 9.72 µM | < 0.25 h |
| CC[C@H](C)[C@H](NC(=O)CNC(=O)[C@@H](NC(=O)[C@H](CO)NC(=O)[C@H](CCC(N)=O)NC(=O)[C@@H](NC(=O)[C@@H](NC(=O)[C@H](CCCCN)NC(=O)[C@@H]1CCCN1C(C)=O)[C@@H](C)CC)[C@@H](C)CC)C(C)C)C(N)=O | 3.59 µM |  |  | 15.7 µM |  |
| CCCC[C@H](NC(=O)[C@H](CCCCN)NC(=O)[C@H](CCCC)NC(=O)[C@@H](CO)NC(=O)[C@@H](NC(=O)CNC(=O)[C@@H](NC(=O)[C@@H](CO)NC(=O)[C@H](CCC(N)=O)NC(=O)[C@@H](NC(=O)[C@@H](NC(=O)[C@H](CCCCN)NC(=O)[C@@H]1CCCN1C(C)=O)[C@@H](C)CC)[C@@H](C)CC)C(C)C)[C@@H](C)CC)C(N)=O |  | inactive | inactive |  |  |
| CC[C@H](C)[C@H](NC(=O)CNC(=O)[C@@H](NC(=O)[C@@H](CO)NC(=O)[C@H](CCC(N)=O)NC(=O)[C@@H](NC(=O)[C@@H](NC(=O)[C@H](CCCCN)NC(=O)[C@@H]1CCCN1C(C)=O)[C@@H](C)CC)[C@@H](C)CC)C(C)C)C(N)=O |  | inactive | inactive |  |  |
| CCCC[C@@H](CC(=O)N[C@@H](CCCCN)C(=O)N[C@@H](CCCC)C(N)=O)NC(=O)[C@@H](CO)NC(=O)[C@@H](NC(=O)C[C@H](C)NC(=O)[C@@H](NC(=O)[C@@H](CO)NC(=O)[C@H](CCC(N)=O)NC(=O)C[C@H](NC(=O)[C@@H](NC(=O)[C@H](CCCCN)NC(=O)C[C@@H]1CCCN1C(C)=O)[C@@H](C)CC)[C@@H](C)CC)C(C)C)[C@@H](C)CC |  | inactive | inactive |  |  |
| CCCC[C@@H](CC(=O)N[C@@H](CCCCN)C(=O)N[C@@H](CCCC)C(N)=O)NC(=O)[C@@H](CO)NC(=O)[C@@H](NC(=O)CNC(=O)C[C@H](NC(=O)[C@H](CO)NC(=O)[C@H](CCC(N)=O)NC(=O)C[C@H](NC(=O)[C@@H](NC(=O)[C@H](CCCCN)NC(=O)[C@@H]1CCCN1C(C)=O)[C@@H](C)CC)[C@@H](C)CC)C(C)C)[C@@H](C)CC |  | inactive | inactive |  |  |
| CCCC[C@@H](CC(=O)N[C@@H](CCCCN)C(=O)N[C@@H](CCCC)C(N)=O)NC(=O)[C@H](CO)NC(=O)[C@@H](NC(=O)CNC(=O)C[C@H](NC(=O)[C@H](CO)NC(=O)[C@H](CCC(N)=O)NC(=O)C[C@H](NC(=O)[C@@H](NC(=O)[C@H](CCCCN)NC(=O)[C@@H]1CCCN1C(C)=O)[C@@H](C)CC)[C@@H](C)CC)C(C)C)[C@@H](C)CC | 3.11 µM |  |  | 10.3 µM | 3.58 h |
